Reference: patent US20140350029A1 (DAINIPPON SUMITOMO PHARMA CO., LTD., priority 2011, published 2014)

Key:
[1] = system: patients with bipolar I depression; assay: Lurasidone monotherapy for bipolar I depression, 6-week study, efficacy; assay type: in vivo, human; conditions: for MADRS effect size vs PBO / MADRS score reduction (change from baseline, MMRM) / reduction in CGI-BP-S depression scores (MMRM): week 6
Procedure: Changes from DB baseline (DB-BL) to week 6 in MADRS and CGI-bipolar severity (CGI-BP-S) depression scores, respectively, were analyzed using mixed model for repeated measures (MMRM). Additional secondary outcome measures, e.g., Sheehan Disability Scale (SDS), were analyzed using analysis of covariance, last observation carried forward (ANCOVA-LOCF), or logistic regression.

[2] = system: patients with schizophrenia; assay: PANSS and BPRS scores, 1-year lurasidone therapy; assay type: in vivo, human; conditions: 40-120 mg/day, over a 1-year period
[3] = Lurasidone adjunctive to lithium or divalproex for bipolar I depression, 6-week study, safety and tolerability; assay type: in vivo, human; conditions: adjunctive to Li/VPA
Procedure: (§1) Therapeutic blood levels of Li or VPA had to be maintained for ≧28 days prior to randomization.
(§2) The total duration of treatment was 6 weeks.
Patients were required to continue treatment with lithium or divalproex during the screening period and throughout the study. Dose adjustments of lithium or divalproex were permitted during the trial to ensure that trough serum levels remained within the protocol-specified range (0.6 mEq/L to 1.2 mEq/L for lithium or […] to 125 μg/mL for divalproex).
This study also evaluated the safety and tolerability of using lurasidone in combination with lithium or divalproex. Patients were evaluated for: (1) Adverse effects, discontinuation due to adverse effects (AEs), and serious adverse effects (SAEs), (2) Movement disorders as assessed by Abnormal Involuntary Movement Scale (AIMS), Barnes Akathisia Rating Scale (BARS), and the Simpson-Angus Scale (SAS), and (3) Weight, laboratory measures, vital signs, and electrocardiograms (ECGs).

[4] = system: patients with bipolar I depression; assay: Lurasidone adjunctive to lithium or divalproex for bipolar I depression, 6-week study, efficacy; assay type: in vivo, human; conditions: lurasidone 20-120 mg/day adjunctive to lithium or divalproex, 6 weeks
Procedure: Changes from DB baseline (DB BL) in MADRS total score and secondary efficacy outcomes were analyzed using either mixed model for repeated measures (MMRM) or analysis of covariance, last observation carried forward (ANCOVA-LOCF), or logistic regression.
as §1, §2
A mixed model for repeated measures (MMRM) was utilized using the ITT population. The results are depicted in FIG. 16. The MMRM model included treatment, visit, pooled center, stratification variable (lithium or divalproex), baseline MADRS total score, and the treatment-by-visit interactions. An unstructured covariance matrix was used for the within-subject correlation. Missing observations were not imputed for this analysis.
Efficacy was also evaluated by measuring the change from baseline in CGI-BP-S score (depression) and the change from baseline in SDS total score. The results are depicted in FIGS. 17 and 18. CGI-BP-S was analyzed using the MMRM method described above, and SDS was analyzed using an analysis of covariance (ANCOVA) model with treatment, visit, pooled center, stratification variable (lithium or divalproex) and the baseline value of SDS. The ITT population was used for the analyses.

[5] = target: T1, Norepinephrine α2C receptor (Homo sapiens, UniProt P18825); assay: In vitro receptor binding, norepinephrine α2C
T1 sequence (P18825 1-462): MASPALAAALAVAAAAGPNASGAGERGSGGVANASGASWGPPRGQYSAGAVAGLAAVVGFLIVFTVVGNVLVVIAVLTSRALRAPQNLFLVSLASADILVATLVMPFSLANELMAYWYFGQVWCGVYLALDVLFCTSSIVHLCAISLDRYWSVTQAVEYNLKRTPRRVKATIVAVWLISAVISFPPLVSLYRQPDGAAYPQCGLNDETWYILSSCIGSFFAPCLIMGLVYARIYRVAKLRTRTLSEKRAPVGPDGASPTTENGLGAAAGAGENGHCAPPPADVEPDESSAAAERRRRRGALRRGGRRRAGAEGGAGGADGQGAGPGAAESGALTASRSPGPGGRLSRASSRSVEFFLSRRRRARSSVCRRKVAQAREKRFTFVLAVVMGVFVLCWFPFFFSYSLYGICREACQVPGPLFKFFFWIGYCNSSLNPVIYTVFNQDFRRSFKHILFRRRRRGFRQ

[6] = target: T2, Serotonin 5-HT2c receptor (Sus scrofa, UniProt K7GSR7); assay type: binding, porcine
T2 sequence (K7GSR7 1-457): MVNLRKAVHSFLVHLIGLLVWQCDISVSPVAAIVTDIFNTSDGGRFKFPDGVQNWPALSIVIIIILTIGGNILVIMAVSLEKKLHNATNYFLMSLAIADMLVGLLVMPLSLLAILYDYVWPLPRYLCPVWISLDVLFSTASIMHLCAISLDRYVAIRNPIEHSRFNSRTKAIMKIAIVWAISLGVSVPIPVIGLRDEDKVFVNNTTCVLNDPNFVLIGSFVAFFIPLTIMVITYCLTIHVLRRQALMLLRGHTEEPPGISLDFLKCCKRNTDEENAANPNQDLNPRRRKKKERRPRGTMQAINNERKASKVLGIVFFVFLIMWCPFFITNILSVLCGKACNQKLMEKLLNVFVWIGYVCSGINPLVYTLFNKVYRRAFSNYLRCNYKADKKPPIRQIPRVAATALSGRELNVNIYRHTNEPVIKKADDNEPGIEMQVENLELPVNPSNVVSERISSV
Procedure: (§3) In vitro binding studies were carried out according to the procedures well-established in the art. Membranes from male Wistar rat brain tissues or cells expressing cloned human receptors were prepared under assay conditions summarized in Ishibashi, T. et al. (Journal of Pharmacology and Experimental Therapeutics (2010)). Functional assays were carried out to analyze the binding affinity and effect on receptor function for dopamine D1-D4 receptor subtypes, serotonin 5-HT1A, 5-HT2A, 5-HT2C, 5-HT6, 5-HT7, norepinephrine α1, α2A, α2C, histamine H1 receptors, and muscarinic M1 receptors.

[7] = target: T3, Dopamine D1 receptor (Rattus norvegicus, UniProt P18901); assay: In vitro receptor binding, dopamine D1 (rat); conditions: read-out: Binding Affinities (Ki; nM) Dopamine D1
T3 construct: Membranes from male Wistar rat brain tissues; from tissue; host or cells: male Wistar rat brain
T3 sequence (P18901 whole entry): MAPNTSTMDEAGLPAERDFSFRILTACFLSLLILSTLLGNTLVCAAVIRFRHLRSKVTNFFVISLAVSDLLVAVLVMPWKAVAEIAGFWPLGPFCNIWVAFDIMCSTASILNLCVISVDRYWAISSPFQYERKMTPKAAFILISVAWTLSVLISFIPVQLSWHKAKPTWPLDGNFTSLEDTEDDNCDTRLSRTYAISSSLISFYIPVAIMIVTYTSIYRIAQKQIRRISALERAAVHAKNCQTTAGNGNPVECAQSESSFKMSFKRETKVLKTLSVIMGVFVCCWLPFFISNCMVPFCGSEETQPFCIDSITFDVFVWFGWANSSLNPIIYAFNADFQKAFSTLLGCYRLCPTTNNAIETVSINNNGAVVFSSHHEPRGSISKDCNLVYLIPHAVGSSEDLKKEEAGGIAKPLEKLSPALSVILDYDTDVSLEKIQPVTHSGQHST
Procedure: as §3

[8] = target: dopamine D2 receptor (Homo sapiens, UniProt P14416); conditions: background statement; cited from earlier work
dopamine D2 receptor, sequence (P14416 whole entry): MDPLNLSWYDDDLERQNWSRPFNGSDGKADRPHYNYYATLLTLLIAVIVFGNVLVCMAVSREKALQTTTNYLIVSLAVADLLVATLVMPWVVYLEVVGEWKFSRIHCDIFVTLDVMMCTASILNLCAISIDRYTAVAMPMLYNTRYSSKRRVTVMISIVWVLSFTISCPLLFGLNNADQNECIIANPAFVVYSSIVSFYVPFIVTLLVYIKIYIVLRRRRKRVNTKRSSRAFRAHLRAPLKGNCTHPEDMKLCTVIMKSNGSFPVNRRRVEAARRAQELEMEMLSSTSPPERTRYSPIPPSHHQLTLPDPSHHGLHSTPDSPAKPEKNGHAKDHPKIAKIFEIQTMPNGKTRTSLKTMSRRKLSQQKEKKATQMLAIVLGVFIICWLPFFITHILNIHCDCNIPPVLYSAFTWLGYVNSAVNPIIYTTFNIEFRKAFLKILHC

Question: Which results are given for O=C1[C@@H]2[C@H]3CC[C@H](C3)[C@@H]2C(=O)N1C[C@@H]1CCCC[C@H]1CN1CCN(c2nsc3ccccc23)CC1 [Lurasidone]?
Answer: Sheehan Disability Scale (SDS) vs PBO ([1]; both LUR20-60 and LUR80-120 groups, LOCF): significant improvement over PBO; Responder rates (reduction in MADRS total score ≧50%) ([1]; lurasidone 20 to 60 mg/day): 53%; MADRS effect size vs PBO ([1]; lurasidone 20 to 60 mg/day): 0.51; MADRS score reduction (change from baseline, MMRM) ([1]; lurasidone 20 to 60 mg/day): −15.4; reduction in CGI-BP-S depression scores (MMRM) ([1]; lurasidone 20 to 60 mg/day): −1.8; Responder rates (reduction in MADRS total score ≧50%) ([1]; lurasidone 80 to 120 mg/day): 51%; MADRS effect size vs PBO ([1]; lurasidone 80 to 120 mg/day): 0.51; MADRS score reduction (change from baseline, MMRM) ([1]; lurasidone 80 to 120 mg/day): −15.4; reduction in CGI-BP-S depression scores (MMRM) ([1]; lurasidone 80 to 120 mg/day): −1.7; depressive symptoms compared to placebo ([1]; monotherapy, flexibly dosed at 20 to 60 mg/day or 80 to 120 mg/day): significantly reduced depressive symptoms; total PANSS and Brief Psychiatric Rating Scale (BPRS) scores [2]: gradual and sustained improvement; changes in weight, lipids, and measures of glucemic control [3]: Minimal changes; discontinuation rates due to adverse events [3]: 6%; most frequently reported adverse events [3]: nausea, headache, somnolence, and tremor; depressive symptoms compared to placebo [4]: significantly reduced depressive symptoms; self-rated measures of social, family, and occupational function as well as quality of life [4]: significantly improved; Ki ([5]; cloned cells expressing human receptors, read-out: Binding Affinities (Ki; nM) Norepinephrine α2C): 10.8 nM; affinity for α2C adrenoreceptor (in words) ([5]; summary of Table 2): moderate affinity; Ki ([6]; porcine, read-out: Binding Affinities (Ki; nM) Serotonin 5-HT2c): 415 nM; binding affinity for serotonin 5-HT2C receptor (in words) ([6]; summary of Table 2): low or negligible binding affinity; Ki [7]: 262 nM; reported affinity for dopamine D2 receptor [8]: high affinity
